Counter-ions that a name gives are not always drawn.
Legend:
[1] = target: T1, Keap1/NRF2 (Homo sapiens, UniProt Q14145); assay: NRF2-Keap1 FP Assay (Kelch domain (321-609) of Keap1, TAMRA-labeled NRF2 ETGE peptide); format: binding; settings: Keap1 (321-609) 20 nM, Tamra labeled peptide 8 nM
T1 construct: Keap1 (321-609) is diluted to 40 nM (2×) in 1× assay buffer
Description: One model for the NRF2-Keap1 interaction is through two binding sites in the Neh2 domain on NRF2. The two sites are referred to as the DLG binding motif (latch domain, uM affinity) and the ETGE binding motif (hinge domain, nM affinity). The Keap1 protein consists of an N-terminal region (NTR), a broad complex, tramtrack, and brick a′ brac domain (BTB), an intervening region (IVR), a double glycine repeat domain (DGR or Kelch), and a C-terminal region. The DLG and ETGE motifs of NRF2's Neh2 domain bind to the Kelch domain of Keap1 at different affinities. In the Keap1 Kelch fluorescence polarization (FP) assay, a TAMRA-labeled 16 mer peptide (AFFAQLQLDEETGEFL) containing the ETGE motif of NRF2 and the Kelch domain (321-609) of Keap1 is used. The assay determines if a compound interferes with the binding between Keap1 […] and the TAMRA-labeled peptide. Binding of TAMRA-labeled NRF2 peptide to Keap1 (321-609) results in a high FP signal. If a compound interferes with the binding between the peptide and the protein, it will cause the assay signal to decrease. Thus, assay signal is inversely proportional to binding inhibition.
100 nl of 100× compound dose response curves (serial 3-fold dilutions) in DMSO are stamped using an Echo liquid handling system (Labcyte) into 384-well low volume black assay plates (Greiner, #784076), with DMSO in columns 6 and 18. The top concentration of compound is located in columns 1 and 13. Keap1 (321-609) is diluted to 40 nM (2×) in 1× assay buffer (50 mM Tris, pH 8.0, 100 mM NaCl, 5 mM MgCl2, 1 mM DTT, 2 mM CHAPS, and 0.005% BSA) and 5 ul is added using a Multidrop Combi (Thermo Electron Corporation) equipped with a metal tip dispenser to all wells of the compound plate, except column 18. Column 18 receives only 5 ul of assay buffer. Immediately, 5 uL of 16 nM (2×) of Tamra labeled peptide (AFFAQLQLDEETGEFL, 21st Century Biochemicals) is added to all wells of the plate. The plates are spun at 500 rpm for 1 min, incubated for 1 hr at room temperature, and read on an Analyst GT (Molecular Devices) equipped with excitation (530/25 nm) and emission (580/10 nm) filters designed for Tamra probes. A 561 nm dichroic mirror is also used in the Analyst. The final assay concentrations of Keap1 (321-609) and Tamra labeled peptide are 20 nM and 8 nM, respectively. Fluorescence measurements, represented as mP, are used in the transformation of the data. Compound activity is calculated based on percent inhibition, normalized against controls in the assay (Control 1 contains the Tamra peptide and Keap1 (321-609) together (0% response) and control 2 contains the Tamra peptide alone (100% response)). Data analysis is handled using the software package Abase XE (Surrey, United Kingdom. The % inhibition values are calculated by the equation: 100−(100*((compound response-average control 2)/(average control 1−average control 2))). For calculation of pIC50s, Abase XE uses a four parameter equation.

[2] = target: T2, NRF2/Keap1 (Homo sapiens, UniProt Q14145); assay: NRF2-Keap1 TR-FRET Low Protein Assay (full length NRF2 and full length Keap1); format: binding; settings: low protein: 1.25 nM Keap1 FlagHis, 2.5 nM biotin-NRF2 added
T2 construct: full length NRF2 protein and full length Keap1 protein (Keap1 exists a dimer) are used
Description: In the NRF2-Keap1 TR-FRET (time-resolved fluorescence resonance energy transfer) low protein assay, full length NRF2 protein and full length Keap1 protein (Keap1 exists a dimer) are used. The assay detects a compound's ability to displace the binding of Keap1 FlagHis with biotinylated Avi-NRF2 protein. Biotin-NRF2 binds to streptavidin-europium (a component of the detection mix) and Keap1 FlagHis is recognized by anti-Flag APC (allophycocyanin) antibody (also a component of the detection mix). If binding occurs between the two proteins, there will be an energy transfer from the Eu+3 (donor) at 615 nm to the APC (acceptor) at 665 nm. A potential NRF2 inhibitor will cause a reduction in the TR-FRET signal by interfering with the binding of Keap1 to NRF2.
Ten nanoliters of 100× compound dose response curves (serial 3-fold dilutions) in DMSO are stamped using an Echo liquid handling system (Labcyte) into 384-well, low volume, black assay plates (Greiner, #784076), with DMSO in columns 6 and 18. An additional 90 nl DMSO is added to each well, to bring the total volume to 100 nl per well. The top concentration of compound is located in columns 1 and 13, with the serial dilutions going across the row. All reagents are diluted in assay buffer (50 mM Tris, pH 8.0, 5 mM MgCl2, 100 mM NaCl, 0.005% BSA, 1 mM DTT, and 2 mM CHAPS. The BSA, DTT, and CHAPS are added to the assay buffer on the day of assay. Using a Multidrop Combi (Thermo Electron Corporation) equipped with a metal tip dispenser, 5 ul of 1.25 nM Keap1 FlagHis protein is added to all wells of the compound plate, with the exception of the wells in column 18. Wells in column 18 receive 5 ul of assay buffer instead. Plates are centrifuged at 500 rpm for 1 minute, covered with a plate lid, and incubated at 37° C. for 2.25 hours. Plates are then removed from the incubator and allowed to cool to RT for 15 minutes. Five microliters of 2.5 nM biotin-NRF2 protein is then added to all wells of the plates and the plates are spun at 500 rpm for 1 minute, followed by incubating at 4° C. for 1.25 hours. The plates are then allowed to warm to RT for 15 minutes, followed by the addition of 10 ul of detection mix (1 nM Streptavidin Eu+ W1024 and 5 ug/ml mouse anti-DYKDDDDK IgG conjugated to SureLight APC antibody; both from Columbia Biosciences) to all wells. Plates are spun at 500 rpm for 1 minute, incubated for 1 hour at RT, and read on an Envision plate reader using a 320 nm excitation filter and 615 nm and 665 nm emission filters. Compound response (% inhibition) and potency (pIC50) are calculated based on the ratio of the two emissions (665 nm/615 nm) and then the transformed data is normalized against controls in the assay (control 1=1% DMSO in the presence of NRF2 and Keap1 protein and control 2=1% DMSO in the presence of only the NRF2 protein). Data analysis is handled using the software package Abase XE (Surrey, United Kingdom). The % inhibition values are calculated from the ratio (transformed) data by the equation: 100−(100*(compound response-average control 2)/(average control 1−average control 2)). For calculation of pIC50s, Abase XE uses a four parameter equation.

[3] = tested on: NQO1 specific enzyme activity in BEAS-2B cells; assay: BEAS-2B NQO1 MTT Assay; format: cell-based; settings: Homo sapiens, BEAS-2B, 48 h, NQO1 specific activity induction
Description: NAD(P)H:quinone oxidoreductase 1 (NQO1), also called DT diaphorase, is a homodimeric FAD-containing enzyme that catalyzes obligatory NAD(P)H-dependent two-electron reductions of quinones and protects cells against the toxic and neoplastic effects of free radicals and reactive oxygen species arising from one-electron reductions. The transcription of NQO1 is finely regulated by NRF2, and thus NQO1 activity is a good marker for NRF2 activation. On day one, frozen BEAS-2B cells (ATCC) are thawed in a water bath, counted, and re-suspended at a concentration of 250,000 cells/mL. Fifty microliters of cells are plated in 384 well black clear-bottomed plates. Plates are incubated at 37° C., 5% CO2 overnight. On day two, plates are centrifuged and 50 nL of compound or controls are added to the cells. Plates are then incubated at 37° C., 5% CO2 for 48 hours. On day four, medium is aspirated from the plate and crude cell lysates are made by adding 13 uL of 1× Cell Signaling Technologies lysis buffer with 1 Complete, Mini, EDTA-free Protease Inhibitor Tablet (Roche) for each 10 mL of lysis buffer. After lysis plates are incubated for 20 minutes at room temperature. Two microliters of lysate are removed for use in Cell Titer Glo assay (Promega) and MTT cocktail is prepared (Prochaska et. al. 1998) for measurement of NQO1 activity. Fifty microliters of MTT cocktail is added to each well, plate is centrifuged, and analyzed on an Envision plate reader (Perkin Elmer) using Absorbance 570 nm label for 30 minutes. Product formation is measured kinetically and the pEC50 of NQO1 specific activity induction is calculated by plotting the change in absorbance (Delta OD/min) versus the log of compound concentration followed by 3-parameter fitting.

T2 sequence (Q14145 whole entry): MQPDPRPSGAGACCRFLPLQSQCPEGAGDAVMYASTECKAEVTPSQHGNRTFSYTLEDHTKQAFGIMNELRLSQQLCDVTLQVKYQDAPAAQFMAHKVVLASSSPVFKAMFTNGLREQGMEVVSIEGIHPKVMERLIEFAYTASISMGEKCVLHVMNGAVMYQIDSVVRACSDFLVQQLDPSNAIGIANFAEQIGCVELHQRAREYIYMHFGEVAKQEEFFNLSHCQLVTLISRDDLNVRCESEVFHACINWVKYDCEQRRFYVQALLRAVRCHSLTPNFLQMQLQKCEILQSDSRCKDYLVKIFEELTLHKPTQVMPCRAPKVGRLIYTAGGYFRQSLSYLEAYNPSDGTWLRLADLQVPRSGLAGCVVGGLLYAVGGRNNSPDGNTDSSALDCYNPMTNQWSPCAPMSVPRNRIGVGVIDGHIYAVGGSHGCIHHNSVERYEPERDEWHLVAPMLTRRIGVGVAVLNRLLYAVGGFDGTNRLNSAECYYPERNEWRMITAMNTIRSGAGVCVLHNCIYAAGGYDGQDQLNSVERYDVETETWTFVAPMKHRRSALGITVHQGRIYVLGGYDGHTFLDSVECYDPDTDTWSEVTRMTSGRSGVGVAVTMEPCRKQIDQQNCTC
T1 sequence (Q14145 321-609): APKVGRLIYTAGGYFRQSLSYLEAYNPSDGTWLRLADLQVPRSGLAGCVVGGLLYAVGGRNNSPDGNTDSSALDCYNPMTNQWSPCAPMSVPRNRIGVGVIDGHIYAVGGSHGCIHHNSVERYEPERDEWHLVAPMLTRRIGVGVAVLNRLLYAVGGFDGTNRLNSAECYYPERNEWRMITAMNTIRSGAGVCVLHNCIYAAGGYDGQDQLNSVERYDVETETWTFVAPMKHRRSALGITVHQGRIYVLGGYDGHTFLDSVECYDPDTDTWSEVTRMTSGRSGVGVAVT

IC50 [1] [nM]	IC50 [2] [nM]	SMILES	EC50 [3] [nM]
100 to 1000	10 to 100	Cn1cc([C@@H]2C[C@H]2c2c(C(=O)O)cnn2-c2cccc(C3CCCN(C(=O)CC4CCCCC4)C3)c2)nn1 (stereo partly drawn) [Example 31, 1-(3-(1-(2-cyclohexylacetyl)piperidin-3-yl)phenyl)-5-((1R,2R)-2-(1-methyl-1H-1,2,3-triazol-4-yl)cyclopropyl)-1H-pyrazole-4-carboxylic Acid]	100 to 1000
100 to 1000	10 to 100	Cn1cc([C@@H]2C[C@H]2c2c(C(=O)O)cnn2-c2cccc(C3CCCN(CCc4ccccc4)C3)c2)nn1 (stereo partly drawn) [Example 29, 5-((1R,2R)-2-(1-Methyl-1H-1,2,3-triazol-4-yl)cyclopropyl)-1-(3-(1-phenethylpiperidin-3-yl)phenyl)-1H-pyrazole-4-carboxylic Acid, Hydrochloride]	1000 to 10000
10 to 100	< 10	Cn1cc([C@@H]2C[C@H]2c2c(C(=O)O)cnn2-c2cccc(C3CCCN(S(=O)(=O)c4ccccc4)C3)c2)nn1 (stereo partly drawn) [Example 30, 5-((1R,2R)-2-(1-methyl-1H-1,2,3-triazol-4-yl)cyclopropyl)-1-(3-(1-(phenylsulfonyl)piperidin-3-yl)phenyl)-1H-pyrazole-4-carboxylic Acid]	1000 to 10000
> 10000	1000 to 10000	O=C(O)c1cnn(-c2cccc(C3CCCN(CC4CCCCC4)C3)c2)c1C1CC1 (stereo not drawn) [Example 28, 1-(3-(1-(cyclohexylmethyl)piperidin-3-yl)phenyl)-5-cyclopropyl-1H-pyrazole-4-carboxylic Acid, Hydrochloride]	1000 to 10000
100 to 1000	10 to 100	Cn1cc([C@@H]2C[C@H]2c2c(C(=O)O)cnn2-c2cccc(N3CCC[C@@H](OCC4CCCCC4)C3)c2)nn1 [Example 43, 1-(3-((R)-3-(Cyclohexylmethoxy)piperidin-1-yl)phenyl)-5-((1R,2R)-2-(1-methyl-1H-1,2,3-triazol-4-yl)cyclopropyl)-1H-pyrazole-4-carboxylic Acid]	100 to 1000
100 to 1000	10 to 100	Cn1cc([C@@H]2C[C@H]2c2c(C(=O)O)cnn2-c2cccc(C3CCCN(C(=O)c4ccccc4)C3)c2)nn1 (stereo partly drawn) [Example 33, 1-(3-(1-benzoylpiperidin-3-yl)phenyl)-5-((1R,2R)-2-(1-methyl-1H-1,2,3-triazol-4-yl)cyclopropyl)-1H-pyrazole-4-carboxylic Acid]	1000 to 10000
10 to 100	10 to 100	Cn1cc([C@@H]2C[C@H]2c2c(C(=O)O)cnn2-c2cccc(C3CCCN(C(=O)C(C)(C)C)C3)c2)nn1 (stereo partly drawn) [Example 32, 5-((1R,2R)-2-(1-methyl-1H-1,2,3-triazol-4-yl)cyclopropyl)-1-(3-(1-pivaloylpiperidin-3-yl)phenyl)-1H-pyrazole-4-carboxylic Acid]	100 to 1000
100 to 1000	10 to 100	CCC[C@@H]1CCCCN1C(=O)N1CCCC(c2cccc(-n3ncc(C(=O)O)c3[C@@H]3C[C@H]3c3cn(C)nn3)c2)C1 (stereo partly drawn) [Example 34, 5-((1R,2R)-2-(1-Methyl-1H-1,2,3-triazol-4-yl)cyclopropyl)-1-(3-(1-((R)-2-propylpiperidine-1-carbonyl)piperidin-3-yl)phenyl)-1H-pyrazole-4-carboxylic Acid]	1000 to 10000
10 to 100	10 to 100	Cn1cc([C@@H]2C[C@H]2c2c(C(=O)O)cnn2-c2cccc(N3CCC[C@@H](CCC4CCCCC4)C3)c2)nn1 [Example 36d, 1-(3-((R)-3-(2-cyclohexylethyl)piperidin-1-yl)phenyl)-5-((1R,2R)-2-(1-methyl-1H-1,2,3-triazol-4-yl)cyclopropyl)-1H-pyrazole-4-carboxylic Acid]	1 to 10

SMILES	IC50 [1] [nM]	IC50 [2] [nM]	EC50 [3] [nM]
CC(C)(C)OC(=O)N1CCCC(c2cccc(-n3ncc(C(=O)O)c3C3CC3)c2)C1 (stereo not drawn) [Example 27, 1-(3-(1-(tert-Butoxycarbonyl)piperidin-3-yl)phenyl)-5-cyclopropyl-1H-pyrazole-4-carboxylic Acid]	> 10000	1000 to 10000	1000 to 10000

Reference: US10351530B2, “Arylcyclohexyl pyrazoles as NRF2 regulators” (GlaxoSmithKline Intellectual Property Development Limited, priority 2015, dated 2019)
